In patent US10781215B2, “Heterobicyclic compounds useful as modulators of IL-12, IL-23 and/or IFNα responses” (BRISTOL-MYERS SQUIBB COMPANY, priority 2016, dated 2020):
pEC50, pIC50: −log10 of the molar value.

Columns and labels:
[1] = target: T1, recombinant human His-tagged Tyk2 pseudokinase domain (His-TVMV-Tyk2, 575-869) (Homo sapiens, UniProt P29597); experiment: Probe displacement assay (HTRF format); format: binding; settings: fluorescein labeled probe, Tyk2 pseudokinase domain 0.5 nM
T1 construct: made in house
Protocol: To 10 μL 26 nM fluorescein labeled probe plus 0.2 nM anti-6×His-terbium labeled antibody (Medarex, labeled by Cisbio) in assay buffer (20 mM Hepes pH 7.5, 150 mM NaCl, 10 mM MgCl2, 2 mM DTT, 50 μg/mL BSA, and 0.015% Brij 35) was added 10 μL recombinant human His-tagged Tyk2 pseudokinase domain (His-TVMV-Tyk2, 575-869) to a final concentration of 0.5 nM. After 1 h at room temperature, the HTRF signal (ratio of fluorescence intensities at emission wavelengths for fluorescein acceptor at 520 nm and terbium donor at 495 nm) was measured on an Envision Plate Reader. Percent inhibition was calculated by comparison to a control without inhibitor and a control without protein. Dose response curves were generated to determine the concentration required for inhibiting 50% of the HTRF signal (EC50).

[2] = system: IFNα stimulated Kit225 T cells (STAT-dependent luciferase reporter); experiment: Kit225 T cell assay, IFNα stimulated STAT-dependent luciferase reporter; format: cell-based; settings: 200 U/mL human recombinant IFNα, 5-6 hours
Protocol: (§1) Kit225 T cells with a stably-integrated STAT-dependent luciferase reporter were plated in RPMI (Gibco) containing 10% heat-inactivated FBS (Gibco) and 100 U/mL PenStrep (Gibco). The cells were then stimulated with either 20 ng/mL human recombinant IL-23 or 200 U/mL human recombinant IFNα (PBL InterferonSource) for 5-6 hours. Luciferase expression was measured using the STEADY-GLO® Luciferase Assay System (Promega) according to the manufacturer's instructions. Inhibition data were calculated by comparison to no inhibitor control wells for 0% inhibition and non-stimulated control wells for 100% inhibition. Dose response curves were generated to determine the concentration required to inhibit 50% of cellular response (IC50) as derived by non-linear regression analysis.

[3] = system: IL-23 stimulated Kit225 T cells (STAT-dependent luciferase reporter); experiment: Kit225 T cell assay, IL-23 stimulated STAT-dependent luciferase reporter; format: cell-based; settings: 20 ng/mL human recombinant IL-23, 5-6 hours
Protocol: as §1

[4] = target: T2, human Tyk2 (amino acids 575-869, His-tagged) (Homo sapiens, UniProt P29597); experiment: Probe displacement assay (SPA format); format: binding; settings: radiolabeled probe 40 nM, Tyk2 2.5 nM
T2 construct: made in house
Protocol: Probe Displacement Assay (SPA Format) The probe displacement assay is conducted as follows: In a […], test compounds along with recombinantly expressed His-tagged protein corresponding to amino acids 575-869 of human Tyk2 (sequence shown below) at 2.5 nM, 40 nM ((R)—N-(1-(3-(8-methyl-5-(methylamino)-8H-imidazo [4,5-d]thiazolo [5,4-b]pyridin-2-yl)phenyl)ethyl)-2-([^3H]methylsulfonyl)benzamide) (preparation described below) and 80 μg/mL Copper His-Tag scintillation proximity assay beads (Perkin Elmer, Catalog # RPNQ0095) in 50 mM HEPES, pH 7.5, containing 100 μg/mL bovine serum albumin and 5% DMSO were incubated for 30 minutes at room temperature. The amount of radiolabeled probe (preparation described below) bound to Tyk2 was then quantified by scintillation counting, and the inhibition by the test compound calculated by comparison to wells either with no inhibitor (0% inhibition) or without Tyk2 (100% inhibition). The EC50 value is defined as the concentration of test compound required to inhibit radiolabeled probe binding by 50%. Probe Displacement Assay (HTRF Format)

T1 sequence (P29597 with tags, fused parts or gaps): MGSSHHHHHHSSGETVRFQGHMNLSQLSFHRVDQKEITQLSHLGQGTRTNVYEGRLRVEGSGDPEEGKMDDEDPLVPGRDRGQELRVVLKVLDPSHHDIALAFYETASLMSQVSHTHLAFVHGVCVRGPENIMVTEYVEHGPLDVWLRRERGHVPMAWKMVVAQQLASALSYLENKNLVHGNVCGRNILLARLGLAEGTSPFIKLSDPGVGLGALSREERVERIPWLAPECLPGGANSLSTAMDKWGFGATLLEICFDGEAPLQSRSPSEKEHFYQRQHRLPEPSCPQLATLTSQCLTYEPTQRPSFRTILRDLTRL
T2 sequence (P29597 with tags, fused parts or gaps): as above

Row | pEC50 [1] | pIC50 [2] | pIC50 [3] | pEC50 [4] | SMILES
1 | 8.92 | 6.54 | 6.34 | – | COc1ccc(Nc2cc(Nc3ncccc3S(C)(=O)=O)c3nc(C)[nH]c3n2)nn1 [Example 45, 7-N-(3-methanesulfonylpyridin-2-yl)-5-N-(6-methoxypyridazin-3-yl)-2-methyl-3H-imidazo[4,5-b]pyridine-5,7-diamine]
2 | 9.40 | 7.17 | 7.55 | – | Cc1nc2c(Nc3ncccc3S(C)(=O)=O)cc(Nc3ccc(F)cn3)nc2[nH]1 [Example 41, 5-N-(5-fluoropyridin-2-yl)-7-N-(3-methanesulfonylpyridin-2-yl)-2-methyl-3H-imidazo[4,5-b]pyridine-5,7-diamine]
3 | 8.96 | 6.57 | 6.44 | – | Cc1nc2c(Nc3ncccc3S(C)(=O)=O)cc(Nc3ccc(N4CCOCC4)cn3)nc2[nH]1 [Example 50, 7-N-(3-methanesulfonylpyridin-2-yl)-2-methyl-5-N-[5-(morpholin-4-yl)pyridin-2-yl]-3H-imidazo[4,5-b]pyridine-5,7-diamine]
4 | 9.15 | 7.01 | 6.97 | – | Cc1cccc(Nc2cc(Nc3ncccc3S(C)(=O)=O)c3nc(C)[nH]c3n2)n1 [Example 49, 7-N-(3-methanesulfonylpyridin-2-yl)-2-methyl-5-N-(6-methylpyridin-2-yl)-3H-imidazo[4,5-b]pyridine-5,7-diamine]
5 | 9.10 | 7.35 | 7.28 | – | Cc1nc2c(Nc3ncccc3S(C)(=O)=O)cc(Nc3cc(F)ccn3)nc2[nH]1 [Example 43, 5-N-(4-fluoropyridin-2-yl)-7-N-(3-methanesulfonylpyridin-2-yl)-2-methyl-3H-imidazo[4,5-b]pyridine-5,7-diamine]
6 | 9.22 | 6.51 | 6.13 | – | Cc1cnc(Nc2cc(Nc3ncccc3S(C)(=O)=O)c3nc(C)[nH]c3n2)cn1 [Example 48, 7-N-(3-methanesulfonylpyridin-2-yl)-2-methyl-5-N-(5-methylpyrazin-2-yl)-3H-imidazo[4,5-b]pyridine-5,7-diamine]
7 | 9.22 | 7.17 | 7.12 | – | COc1ccc(Nc2cc(Nc3ncccc3S(C)(=O)=O)c3nc(C)[nH]c3n2)nc1 [Example 42, 7-N-(3-methanesulfonylpyridin-2-yl)-5-N-(5-methoxypyridin-2-yl)-2-methyl-3H-imidazo[4,5-b]pyridine-5,7-diamine]
8 | 9.40 | 6.39 | 6.16 | – | Cc1nc2c(Nc3ncccc3S(C)(=O)=O)cc(NC(=O)C3CC3)nc2[nH]1 [Example 47, N-{7-[(3-methanesulfonylpyridin-2-yl)amino]-2-methyl-3H-imidazo[4,5-b]pyridin-5-yl}cyclopropanecarboxamide]
9 | – | 7.06 | 6.79 | 7.89 | Cc1nc2c(Nc3ccccc3S(C)(=O)=O)cc(Nc3ccc(F)cn3)nc2[nH]1 [Example 2, N5-(5-fluoropyridin-2-yl)-2-methyl-N7-(2-(methylsulfonyl)phenyl)-3H-imidazo[4,5-b]pyridine-5,7-diamine]
10 | – | 6.92 | 6.85 | 7.82 | Cc1nc2c(Nc3ccccc3S(C)(=O)=O)cc(Nc3cc(C)n(C)n3)nc2[nH]1 [Example 26, 5-N-(1,5-dimethyl-1H-pyrazol-3-yl)-7-N-(2-methanesulfonylphenyl)-2-methyl-3H-imidazo[4,5-b]pyridine-5,7-diamine]
11 | – | 7.46 | 7.68 | 8.22 | Cc1cccc(Nc2cc(Nc3ccccc3S(C)(=O)=O)c3nc(C)[nH]c3n2)n1 [Example 29, 7-N-(2-methanesulfonylphenyl)-2-methyl-5-N-(6-methylpyridin-2-yl)-3H-imidazo[4,5-b]pyridine-5,7-diamine]
12 | – | 6.30 | 6.24 | 7.24 | Cc1nc2c(Nc3ccccc3S(C)(=O)=O)cc(Nc3ccn(C(C)C)n3)nc2[nH]1 [Example 30, 7-N-(2-methanesulfonylphenyl)-2-methyl-5-N-[1-(propan-2-yl)-1H-pyrazol-3-yl]-3H-imidazo[4,5-b]pyridine-5,7-diamine]
13 | – | 6.79 | 6.72 | 7.96 | Cc1nc2c(Nc3ccccc3S(C)(=O)=O)cc(Nc3ccc(N4CCOCC4)cn3)nc2[nH]1 [Example 5, 7-N-(2-methanesulfonylphenyl)-2-methyl-5-N-[5-(morpholin-4-yl)pyridin-2-yl]-3H-imidazo[4,5-b]pyridine-5,7-diamine]
14 | 8.74 | 6.49 | 5.53 | – | Cc1ccnc(Nc2cc(Nc3ncccc3S(C)(=O)=O)c3nc(C)[nH]c3n2)c1 [Example 46, 7-N-(3-methanesulfonylpyridin-2-yl)-2-methyl-5-N-(4-methylpyridin-2-yl)-3H-imidazo[4,5-b]pyridine-5,7-diamine]
